The numbers were not newly measured in patent publication US5173304A, “Agents for the treatment of severe pain and preparation of said agents” (Dolorgiet Beteiligungs GmbH, priority 1989, dated 1992), which cites them from elsewhere.

The structures appear in SMILES notation.

The conditions of this data set: in vivo.

With `CC(C)Cc1ccc(C(C)C(=O)O)cc1` (centres unmarked) [ibuprofen], the Analgesic effectiveness entry is on record as “effective analgesic” and the Tolerability entry was “well tolerated”.
